According to PMC8037182, “Solvothermal Synthesis of Multiple Dihydropyrimidinones at a Time as Inhibitors of Eg5” (Molecules, 2021):

Molecular target: T1, Eg5 motor protein (Homo sapiens, UniProt P52732)
T1 construct: Eg5 motor domain (amino acids 1-368) was cloned into pET22b; His-tag (C); made in house; host or cells: Escherichia coli BL21 (DE3)
T1 sequence (P52732 1-368): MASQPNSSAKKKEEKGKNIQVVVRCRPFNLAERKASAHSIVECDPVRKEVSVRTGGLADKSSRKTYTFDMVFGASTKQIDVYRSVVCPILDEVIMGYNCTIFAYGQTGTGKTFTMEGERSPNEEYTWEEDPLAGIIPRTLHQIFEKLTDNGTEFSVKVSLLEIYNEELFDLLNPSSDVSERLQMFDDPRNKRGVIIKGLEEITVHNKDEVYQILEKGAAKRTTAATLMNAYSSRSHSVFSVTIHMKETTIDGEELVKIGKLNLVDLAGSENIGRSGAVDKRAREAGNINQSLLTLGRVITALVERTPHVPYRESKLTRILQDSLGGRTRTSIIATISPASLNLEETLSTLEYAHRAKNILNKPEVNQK
Assay: microtubule-activated Eg5 motor protein ATPase assay (malachite green, OD630)
Format: biochemical
Settings: for IC50: microtubule-stimulated KSP ATPase activity
Experimental: Eg5 motor domain (amino acids 1-368) was cloned into pET22b and expressed in Escherichia coli BL21 (DE3) cells.
Tubulin was purified from pig brain, as described in the literature, and stored at −60 °C in BRB80 (80 mM K-Pipes, pH 6.8, 1 mM EGTA, 1 mM MgCl2). Before the assay of Eg5 ATPase, microtubules were assembled in the presence of paclitaxel and were then separated from unassembled tubulin by centrifugation as described in the literature.
Inhibitory activities of the compounds were measured using a microtubule-activated ATPase assay. The compounds, paclitaxel stabilized microtubules, Eg5 motor protein and BRB80 were added to wells of a 96-well plate in a total reaction volume of 38.5 μL. Reactions were started by the addition of 522.11 μM ATP in a total reaction volume of 98.5 μL, incubated at 37 °C for 30 min and terminated by the addition of 15 μL of perchloric acid. The mixture was centrifuged (10,000 rpm) 10 min at room temperature. The supernatant from this centrifugation step was mixed with HCl 1 M, 33 mM malachite green, 775 mM ammonium molybdate tetrahydrate. After 10 min the absorbance was measured at 630 nm using a microplate reader (BIO-RAD iMark^TM). […] Monastrol was used as the positive control. All conditions were performed in three independent duplicate experiments and averaged data points are shown as mean values ± SD, IC50 values were calculated with SPSS17.0 software. The primary data were shown in Supplementary Materials Tables S1–S3.
A sequence of human Eg5 corresponding to amino acids 1 to 368 was amplified with polymerase chain reaction (PCR) by NOVOPRO BIOSCIENCE INC. It was cloned into pET22b introducing a C-terminal His-tag. The protein was expressed in Escherichia coli BL21 (DE3) cells for 12 h at 25 ℃ in LB containing 1mM Isopropyl-beta-D-thiogalactopyranoside (IPTG), 50 ug/ml Ampicillin. The harvested cells were lysed with Ultrasonic Processor in Binder-buffer (50 mM Tris-HCl, 350 mM NaCl, 10 mM Imidazole, pH 8.0). The clarified lysate was loaded onto a Ni-IDA -Sepharose CL-6B Affi Gel column (Sigma), washed with Washing-buffer(20 mM Tris-HCl, 350 mM NaCl, 20 mM Imidazole, pH 8.0) untill effluent OD280 value reaches baseline. Then it was eluted with Elution-buffer (20 mM Tris-HCl, 350 mM NaCl , 250 mM Imidazole, pH8.0). The buffer was exchanged to 150 mM NaCl, 20mM Tris pH 8.0 by dialysis. The protein concentration was adjusted to 2 mg/ml (measured by a Bradford assay using bovine serum albumin (BSA) as standard). Eg5368H was stored at -20 ℃.
Pig brains were cleaned of blood clots with kitchen paper, weighed, and transferred to a Waring blender. Cold (4 ℃) depolymerization buffer (DB) was added at a ratio of 1 liter/kg of brain tissue. The mixture was homogenized twice for approximately 30 s. The homogenates were then centrifuged in a SLA 1500 Sorvall rotor at 29,000g for 60 min at 4 ℃. The supernatants were pooled and supplemented with an equal volume of warm (37 ℃) high-molarity PIPES buffer (HMPB), ATP (1.5 mM final), and GTP (0.5 mM final). An equal volume (1/3 of the final volume) of pre-warmed to 37 ℃ anhydrous glycerol was added to this solution. This mixture was incubated in a 37 ℃ water bath for 1 h. The polymerized tubulin was then centrifuged in a Ti 45 Beckman rotor at 151,000g (44,000 rpm) for 30 min at 37 ℃. The resulting microtubule pellets were resuspended in 100 ml of cold DB and left for 30 min on ice. The depolymerized tubulinwas subsequently centrifuged in a Ti 45 Beckman rotor at 70,000g (30,000 rpm) for 30 min at 4 ℃. The supernatant from this centrifugation step was mixed with an equal volume of the HMPB supplemented with ATP and GTP, followed by the addition of glycerol (1/3 of the final volume) as described above. The mixture was incubated in a 37 ℃ water bath for 30 min, and the polymerized tubulin was pelleted in a Ti 45 Beckman rotor at 151,000g (44,000 rpm) for 30 min at 37 ℃. […]

Compound	OD630 Value Mean (compound 25.38 uM)	OD630 Value Mean (compound 50.76 uM)	OD630 Value Mean (compound 67.68 uM)	OD630 Value Mean (compound 76.14 uM)	OD630 Value Mean (compound 101.52 uM)	IC50	OD630 Value Mean (compound 24.24 uM)	OD630 Value Mean (compound 30.3 uM)	OD630 Value Mean (compound 60.61 uM)	OD630 Value Mean (compound 90.91 uM)	OD630 Value Mean (compound 121.21 uM)	OD630 Value Mean (compound 80.81 uM)	OD630 Value Mean (compound 107.74 uM)	OD630 Value Mean (compound 20.2 uM)	OD630 Value Mean (compound 40.41 uM)	OD630 Value Mean (compound 53.87 uM)
CCOC(=O)c1c(C2NC(=O)NC(C)=C2C(=O)Nc2ccccc2OC)[nH]c(C(=O)OC)c1C (stereo not shown) [D1]	0.26	0.248	0.195	0.189	0.159	38.7 µM	–	–	–	–	–	–	–	–	–	–
CCOC(=O)C1=C(C)NC(=S)NC1c1cccc(O)c1 (stereo not shown) [Monastrol, monastrol, reference compound]	0.214	0.193	0.190	0.188	0.177	51.7 µM	–	–	–	–	–	–	–	–	–	–
CCOC(=O)c1[nH]c(C2NC(=O)NC(C)=C2C(=O)Nc2ccccc2C)c(C(=O)OC)c1C (stereo not shown) [D4]	–	–	–	–	–	71.3 µM	0.198	0.174	0.158	0.148	0.134	–	–	–	–	–
CCOc1ccccc1C1NC(=S)NC(C)=C1C(=O)Nc1ccc(Cl)cc1 (stereo not shown) [C9]	–	–	–	–	–	30.2 µM	0.221	0.182	0.163	0.156	0.14	0.157	–	–	–	–
CCOC(=O)c1[nH]c(C2NC(=O)NC(C)=C2C(=O)Nc2ccc(Cl)cc2)c(C(=O)OCC)c1C (stereo not shown) [D7]	–	–	–	–	–	63.2 µM	–	0.231	0.197	0.158	0.146	0.164	–	–	–	–
CCOC(=O)c1[nH]c(C2NC(=O)NC(C)=C2C(=O)Nc2ccccc2OC)c(C(=O)OC)c1C (stereo not shown) [D3]	–	–	–	–	–	53.6 µM	0.218	0.182	0.146	0.122	0.115	–	–	–	–	–
CCOC(=O)c1c(C2NC(=O)NC(C)=C2C(=O)Nc2ccccc2)[nH]c(C(=O)OC)c1C (stereo not shown) [D10]	–	–	–	–	–	64.4 µM	–	–	0.225	0.191	0.133	0.197	0.139	–	–	–
CCOC(=O)c1c(C2NC(=O)NC(C)=C2C(=O)Nc2ccccc2C)[nH]c(C(=O)OC)c1C (stereo not shown) [D2]	–	–	–	–	–	67.3 µM	–	–	0.219	–	–	0.137	–	0.322	0.279	0.26
CCOC(=O)c1[nH]c(C2NC(=S)NC(C)=C2C(=O)OC)c(C(=O)OCC)c1C (stereo not shown) [D12]	–	–	–	–	–	57.4 µM	–	0.243	0.191	0.129	0.123	0.141	–	–	–	–
COC(=O)c1[nH]c(C2NC(=S)NC(C)=C2C(=O)c2ccccc2)c(C(=O)OC)c1C (stereo not shown) [D14]	–	–	–	–	–	71.9 µM	–	0.25	0.187	0.138	0.14	0.151	–	–	–	–
